From ChEMBL document CHEMBL4507283, “Data for DCP probe BI-1935” (2021)

Columns and labels:
[1] = biological target: Mitogen-activated protein kinase kinase kinase 15 (Homo sapiens) (UniProt Q6ZN16); conditions: Compound concentration 1000.0 nM
[2] = system: Phosphatidylinositol 4,5-bisphosphate 3-kinase catalytic subunit alpha isoform (Homo sapiens), P42336 [H1047L]; conditions: Compound concentration 1000.0 nM
[3] = biological target: Ribosomal protein S6 kinase alpha-4 (Homo sapiens) (UniProt O75676); conditions: Compound concentration 1000.0 nM
[4] = biological target: 5-hydroxytryptamine receptor 1D (Homo sapiens) (UniProt P28221); conditions: Compound concentration 10.0 uM
[5] = biological target: SRSF protein kinase 3 (Homo sapiens) (UniProt Q9UPE1); conditions: Compound concentration 1000.0 nM
[6] = biological target: Mitogen-activated protein kinase kinase kinase 3 (Homo sapiens) (UniProt Q99759); conditions: Compound concentration 1000.0 nM
[7] = biological target: Interferon-induced, double-stranded RNA-activated protein kinase (Homo sapiens) (UniProt P19525); conditions: Compound concentration 1000.0 nM
[8] = biological target: Citron Rho-interacting kinase (Homo sapiens) (UniProt O14578); conditions: Compound concentration 1000.0 nM
[9] = biological target: Protein kinase C iota type (Homo sapiens) (UniProt P41743); conditions: Compound concentration 1000.0 nM
[10] = biological target: Mast/stem cell growth factor receptor Kit (Homo sapiens) (UniProt P10721); conditions: Compound concentration 1000.0 nM
[11] = biological target: Calcium/calmodulin-dependent protein kinase kinase 1 (Homo sapiens) (UniProt Q8N5S9); conditions: Compound concentration 1000.0 nM
[12] = biological target: Platelet-derived growth factor receptor alpha (Homo sapiens) (UniProt P16234); conditions: Compound concentration 1000.0 nM
[13] = biological target: Ribosomal protein S6 kinase alpha-3 (Homo sapiens) (UniProt P51812); conditions: Compound concentration 1000.0 nM
[14] = biological target: Mitogen-activated protein kinase kinase kinase 2 (Homo sapiens) (UniProt Q9Y2U5); conditions: Compound concentration 1000.0 nM
[15] = biological target: Myosin light chain kinase, smooth muscle (Homo sapiens) (UniProt Q15746); conditions: Compound concentration 1000.0 nM
[16] = biological target: Serine/threonine-protein kinase 26 (Homo sapiens) (UniProt Q9P289); conditions: Compound concentration 1000.0 nM
[17] = biological target: Serine/threonine-protein kinase PAK 3 (Homo sapiens) (UniProt O75914); conditions: Compound concentration 1000.0 nM
[18] = biological target: Serine/threonine-protein kinase TAO3 (Homo sapiens) (UniProt Q9H2K8); conditions: Compound concentration 1000.0 nM
[19] = biological target: Cyclin-dependent kinase 11A (Homo sapiens) (UniProt Q9UQ88); conditions: Compound concentration 1000.0 nM
[20] = biological target: Serine/threonine-protein kinase NIM1 (Homo sapiens) (UniProt Q8IY84); conditions: Compound concentration 1000.0 nM
[21] = biological target: Mitogen-activated protein kinase 15 (Homo sapiens) (UniProt Q8TD08); conditions: Compound concentration 1000.0 nM
[22] = system: Epidermal growth factor receptor (Homo sapiens), P00533 [L858R,T790M]; conditions: Compound concentration 1000.0 nM
[23] = biological target: Non-receptor tyrosine-protein kinase TNK1 (Homo sapiens) (UniProt Q13470); conditions: Compound concentration 1000.0 nM
[24] = biological target: cAMP-dependent protein kinase catalytic subunit alpha (Homo sapiens) (UniProt P17612); conditions: Compound concentration 1000.0 nM
[25] = biological target: Mitogen-activated protein kinase 3 (Homo sapiens) (UniProt P27361); conditions: Compound concentration 1000.0 nM
[26] = biological target: Myosin light chain kinase 2, skeletal/cardiac muscle (Homo sapiens) (UniProt Q9H1R3); conditions: Compound concentration 1000.0 nM
[27] = biological target: Serine/threonine-protein kinase Nek6 (Homo sapiens) (UniProt Q9HC98); conditions: Compound concentration 1000.0 nM
[28] = biological target: Calcitonin-gene-related peptide receptor, CALCRL/RAMP1 (Homo sapiens) (UniProt O60894+Q16602); assay: CGRP/HU Eurofins-Panlabs selectivity data (BI); assay type: protein-complex assay; conditions: Compound concentration 10.0 uM
[29] = biological target: MAP/microtubule affinity-regulating kinase 3 (Homo sapiens) (UniProt P27448); conditions: Compound concentration 1000.0 nM
[30] = biological target: Sodium-dependent noradrenaline transporter (Homo sapiens) (UniProt P23975); assay: NETRANS/H Eurofins-Panlabs selectivity data (BI); conditions: Compound concentration 10.0 uM
[31] = biological target: T1, 5-hydroxytryptamine receptor 3A (Homo sapiens) (UniProt P46098); assay: 5HT3/HU Eurofins-Panlabs selectivity data (BI); conditions: Compound concentration 10.0 uM
T1 sequence (whole entry): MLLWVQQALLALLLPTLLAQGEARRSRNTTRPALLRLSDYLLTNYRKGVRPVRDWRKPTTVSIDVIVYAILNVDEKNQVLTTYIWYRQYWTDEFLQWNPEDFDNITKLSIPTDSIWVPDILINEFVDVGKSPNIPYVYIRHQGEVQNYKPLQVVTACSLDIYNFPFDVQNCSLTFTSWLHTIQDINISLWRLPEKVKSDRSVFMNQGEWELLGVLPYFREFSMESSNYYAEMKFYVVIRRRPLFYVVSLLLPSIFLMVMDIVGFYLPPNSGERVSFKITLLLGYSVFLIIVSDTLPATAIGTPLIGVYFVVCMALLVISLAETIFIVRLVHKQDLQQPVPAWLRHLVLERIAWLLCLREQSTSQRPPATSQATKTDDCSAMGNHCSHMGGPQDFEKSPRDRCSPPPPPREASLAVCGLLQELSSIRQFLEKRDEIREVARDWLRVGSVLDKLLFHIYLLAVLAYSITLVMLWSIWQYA

[32] = biological target: Casein kinase I isoform alpha-like (Homo sapiens) (UniProt Q8N752); conditions: Compound concentration 1000.0 nM
[33] = biological target: Cathepsin G (Homo sapiens) (UniProt P08311); assay: PEPCATHEPSG Eurofins-Panlabs selectivity data (BI); conditions: Compound concentration 10.0 uM
[34] = biological target: Sigma non-opioid intracellular receptor 1 (Homo sapiens, UniProt Q99720); conditions: Compound concentration 10.0 uM
[35] = biological target: Serine/threonine-protein kinase Nek4 (Homo sapiens) (UniProt P51957); conditions: Compound concentration 1000.0 nM
[36] = biological target: Ribosomal protein S6 kinase alpha-1 (Homo sapiens) (UniProt Q15418); conditions: Compound concentration 1000.0 nM
[37] = biological target: Serine/threonine-protein kinase 36 (Homo sapiens) (UniProt Q9NRP7); conditions: Compound concentration 1000.0 nM
[38] = biological target: Serotonin 2 (5-HT2) receptor (Rattus norvegicus) (UniProt P30994+P08909+P14842); assay: 5HT2/R Eurofins-Panlabs selectivity data (BI); assay type: protein assay; conditions: Compound concentration 10.0 uM

Sigma non-opioid intracellular receptor 1, sequence (Q99720 whole entry): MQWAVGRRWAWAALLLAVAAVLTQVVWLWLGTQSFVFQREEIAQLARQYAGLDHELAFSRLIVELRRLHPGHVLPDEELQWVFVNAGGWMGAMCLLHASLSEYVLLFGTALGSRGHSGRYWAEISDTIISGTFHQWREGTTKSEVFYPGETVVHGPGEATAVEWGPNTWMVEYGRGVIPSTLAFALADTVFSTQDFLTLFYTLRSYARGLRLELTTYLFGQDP
5-hydroxytryptamine receptor 1D (Homo sapiens), sequence (P28221 whole entry): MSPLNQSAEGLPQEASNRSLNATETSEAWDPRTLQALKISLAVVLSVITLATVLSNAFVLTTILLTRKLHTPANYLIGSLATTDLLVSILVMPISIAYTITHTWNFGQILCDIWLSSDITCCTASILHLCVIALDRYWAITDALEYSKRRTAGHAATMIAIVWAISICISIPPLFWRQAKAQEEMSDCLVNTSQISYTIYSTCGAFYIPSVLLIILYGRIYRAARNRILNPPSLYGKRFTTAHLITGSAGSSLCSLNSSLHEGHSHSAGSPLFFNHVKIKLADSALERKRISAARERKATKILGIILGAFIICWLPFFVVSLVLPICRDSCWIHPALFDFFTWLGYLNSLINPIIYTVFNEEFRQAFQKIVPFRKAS
Cyclin-dependent kinase 11A (Homo sapiens), sequence (Q9UQ88 whole entry): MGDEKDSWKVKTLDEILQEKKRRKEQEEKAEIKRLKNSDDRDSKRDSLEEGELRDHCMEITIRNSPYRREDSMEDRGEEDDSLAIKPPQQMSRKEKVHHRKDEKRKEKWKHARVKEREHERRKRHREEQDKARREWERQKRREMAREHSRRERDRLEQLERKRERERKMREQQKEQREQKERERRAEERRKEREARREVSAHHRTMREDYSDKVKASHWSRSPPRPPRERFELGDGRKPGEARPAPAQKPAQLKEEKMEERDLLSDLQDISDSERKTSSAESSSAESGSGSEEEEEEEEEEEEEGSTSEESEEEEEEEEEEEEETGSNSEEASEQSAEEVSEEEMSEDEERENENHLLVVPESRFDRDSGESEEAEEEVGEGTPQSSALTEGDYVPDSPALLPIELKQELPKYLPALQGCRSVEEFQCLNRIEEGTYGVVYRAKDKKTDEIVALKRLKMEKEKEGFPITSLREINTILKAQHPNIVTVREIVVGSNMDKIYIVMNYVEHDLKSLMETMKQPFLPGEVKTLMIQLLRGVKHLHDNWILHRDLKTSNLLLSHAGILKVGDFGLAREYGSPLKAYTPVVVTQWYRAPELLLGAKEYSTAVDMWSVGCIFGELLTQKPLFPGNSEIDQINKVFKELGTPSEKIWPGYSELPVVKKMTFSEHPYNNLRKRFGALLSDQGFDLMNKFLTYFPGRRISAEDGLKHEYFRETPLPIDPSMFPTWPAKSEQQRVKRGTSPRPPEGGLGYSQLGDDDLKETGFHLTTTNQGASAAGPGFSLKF
Protein kinase C iota type (Homo sapiens), sequence (P41743 whole entry): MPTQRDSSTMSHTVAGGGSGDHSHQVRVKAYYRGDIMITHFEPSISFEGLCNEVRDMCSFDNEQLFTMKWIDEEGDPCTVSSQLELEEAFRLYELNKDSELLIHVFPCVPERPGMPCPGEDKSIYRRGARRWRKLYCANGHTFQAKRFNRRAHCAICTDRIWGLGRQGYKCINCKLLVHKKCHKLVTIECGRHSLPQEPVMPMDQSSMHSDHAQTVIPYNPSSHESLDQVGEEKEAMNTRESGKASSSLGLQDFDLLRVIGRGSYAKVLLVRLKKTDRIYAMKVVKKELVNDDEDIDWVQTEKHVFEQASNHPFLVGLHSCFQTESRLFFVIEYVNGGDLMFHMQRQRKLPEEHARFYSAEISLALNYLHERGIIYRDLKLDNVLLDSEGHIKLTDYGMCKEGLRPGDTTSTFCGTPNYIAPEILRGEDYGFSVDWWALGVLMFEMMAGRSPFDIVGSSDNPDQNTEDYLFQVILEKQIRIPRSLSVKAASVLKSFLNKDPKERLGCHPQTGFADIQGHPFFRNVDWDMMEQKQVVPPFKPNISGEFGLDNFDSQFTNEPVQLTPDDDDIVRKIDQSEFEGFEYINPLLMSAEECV
Myosin light chain kinase 2, skeletal/cardiac muscle (Homo sapiens), sequence (Q9H1R3 whole entry): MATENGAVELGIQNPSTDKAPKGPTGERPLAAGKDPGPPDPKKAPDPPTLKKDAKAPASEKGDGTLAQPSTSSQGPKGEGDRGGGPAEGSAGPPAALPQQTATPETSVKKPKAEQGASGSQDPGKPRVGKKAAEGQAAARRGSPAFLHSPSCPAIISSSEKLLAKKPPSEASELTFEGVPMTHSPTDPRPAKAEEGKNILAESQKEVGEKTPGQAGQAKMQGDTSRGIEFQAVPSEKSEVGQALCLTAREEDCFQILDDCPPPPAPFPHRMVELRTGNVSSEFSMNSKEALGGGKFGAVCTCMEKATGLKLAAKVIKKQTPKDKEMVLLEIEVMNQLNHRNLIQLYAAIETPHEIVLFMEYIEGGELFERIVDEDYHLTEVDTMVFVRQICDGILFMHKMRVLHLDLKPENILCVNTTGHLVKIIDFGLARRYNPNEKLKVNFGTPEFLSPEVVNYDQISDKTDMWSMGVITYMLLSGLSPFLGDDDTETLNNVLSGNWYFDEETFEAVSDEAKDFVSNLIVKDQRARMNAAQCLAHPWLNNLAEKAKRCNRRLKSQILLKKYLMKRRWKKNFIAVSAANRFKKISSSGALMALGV
Serine/threonine-protein kinase Nek6 (Homo sapiens), sequence (Q9HC98 whole entry): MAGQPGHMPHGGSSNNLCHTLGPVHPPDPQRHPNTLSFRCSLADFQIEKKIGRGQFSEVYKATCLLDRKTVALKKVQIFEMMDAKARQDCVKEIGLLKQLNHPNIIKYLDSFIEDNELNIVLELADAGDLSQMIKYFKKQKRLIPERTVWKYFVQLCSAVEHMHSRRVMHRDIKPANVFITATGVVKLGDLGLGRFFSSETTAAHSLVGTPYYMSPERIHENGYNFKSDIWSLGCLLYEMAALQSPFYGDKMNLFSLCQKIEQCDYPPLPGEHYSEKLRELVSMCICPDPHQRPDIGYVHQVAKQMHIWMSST
Ribosomal protein S6 kinase alpha-1 (Homo sapiens), sequence (Q15418 whole entry): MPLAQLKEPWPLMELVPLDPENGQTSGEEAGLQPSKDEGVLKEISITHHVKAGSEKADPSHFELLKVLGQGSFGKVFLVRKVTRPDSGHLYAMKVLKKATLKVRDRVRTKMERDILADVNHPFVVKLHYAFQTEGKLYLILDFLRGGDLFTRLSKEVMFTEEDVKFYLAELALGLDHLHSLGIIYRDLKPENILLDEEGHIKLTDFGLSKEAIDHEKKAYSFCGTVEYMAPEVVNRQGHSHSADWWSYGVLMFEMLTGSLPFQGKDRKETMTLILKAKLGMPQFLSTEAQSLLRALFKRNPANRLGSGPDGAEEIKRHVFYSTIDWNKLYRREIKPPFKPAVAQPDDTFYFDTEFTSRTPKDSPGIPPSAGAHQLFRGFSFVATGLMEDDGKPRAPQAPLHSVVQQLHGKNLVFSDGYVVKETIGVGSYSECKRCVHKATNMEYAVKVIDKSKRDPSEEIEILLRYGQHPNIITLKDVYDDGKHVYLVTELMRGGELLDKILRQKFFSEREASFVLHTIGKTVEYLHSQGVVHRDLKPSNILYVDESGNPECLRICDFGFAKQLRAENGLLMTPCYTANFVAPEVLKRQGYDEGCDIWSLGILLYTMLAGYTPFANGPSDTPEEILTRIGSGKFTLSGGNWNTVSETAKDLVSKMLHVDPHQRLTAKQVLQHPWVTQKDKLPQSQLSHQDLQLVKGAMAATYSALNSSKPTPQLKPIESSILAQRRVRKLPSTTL
Mast/stem cell growth factor receptor Kit (Homo sapiens), sequence (P10721 whole entry): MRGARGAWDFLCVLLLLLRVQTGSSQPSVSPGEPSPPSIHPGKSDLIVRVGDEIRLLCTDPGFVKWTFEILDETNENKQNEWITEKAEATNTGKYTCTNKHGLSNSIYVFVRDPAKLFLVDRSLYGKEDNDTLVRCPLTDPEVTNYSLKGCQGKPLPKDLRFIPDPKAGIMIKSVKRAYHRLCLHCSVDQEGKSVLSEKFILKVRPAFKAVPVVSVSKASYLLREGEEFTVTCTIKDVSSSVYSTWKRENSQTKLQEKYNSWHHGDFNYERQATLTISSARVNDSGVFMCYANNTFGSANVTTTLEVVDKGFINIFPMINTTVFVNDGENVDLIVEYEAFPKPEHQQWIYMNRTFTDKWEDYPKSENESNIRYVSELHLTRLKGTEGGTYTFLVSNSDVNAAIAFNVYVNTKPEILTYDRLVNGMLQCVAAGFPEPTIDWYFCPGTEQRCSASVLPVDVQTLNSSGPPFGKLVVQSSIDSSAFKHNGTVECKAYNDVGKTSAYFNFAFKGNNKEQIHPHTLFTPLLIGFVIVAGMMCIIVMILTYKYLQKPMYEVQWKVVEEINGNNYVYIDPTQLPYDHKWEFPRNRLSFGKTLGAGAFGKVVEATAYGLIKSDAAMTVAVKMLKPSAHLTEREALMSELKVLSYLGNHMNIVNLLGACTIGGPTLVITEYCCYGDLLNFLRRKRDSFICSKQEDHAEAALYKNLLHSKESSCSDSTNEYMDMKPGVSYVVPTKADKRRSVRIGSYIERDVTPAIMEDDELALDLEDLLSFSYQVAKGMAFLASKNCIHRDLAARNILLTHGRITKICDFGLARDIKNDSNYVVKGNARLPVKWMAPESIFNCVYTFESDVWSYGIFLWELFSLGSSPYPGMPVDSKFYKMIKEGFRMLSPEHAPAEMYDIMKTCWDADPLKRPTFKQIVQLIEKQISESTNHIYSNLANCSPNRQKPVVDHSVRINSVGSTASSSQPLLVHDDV
Casein kinase I isoform alpha-like (Homo sapiens), sequence (Q8N752 whole entry, canonical isoform): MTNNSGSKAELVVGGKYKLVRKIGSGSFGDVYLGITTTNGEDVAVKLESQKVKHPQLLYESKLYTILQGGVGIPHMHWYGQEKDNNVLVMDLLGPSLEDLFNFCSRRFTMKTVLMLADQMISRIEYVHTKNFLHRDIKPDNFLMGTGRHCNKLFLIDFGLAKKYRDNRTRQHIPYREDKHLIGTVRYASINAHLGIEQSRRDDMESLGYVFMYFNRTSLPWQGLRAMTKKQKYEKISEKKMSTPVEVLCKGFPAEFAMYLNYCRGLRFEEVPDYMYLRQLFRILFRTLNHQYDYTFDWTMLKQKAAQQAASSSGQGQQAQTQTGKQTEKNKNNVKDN

CCOCCn1cc(C(=O)Nc2ccc(-n3nc(-c4cccnc4)cc3C(F)(F)F)cn2)ccc1=O [BI 1935]
inactive: residual activity [1] 100% | residual activity [2] 93% | residual activity [3] 80% | inhibition [4] 0.593% | residual activity [5] 100% | residual activity [6] 100% | residual activity [7] 100% | residual activity [8] 97% | residual activity [9] 73% | residual activity [10] 89% | residual activity [11] 100% | residual activity [12] 68% | residual activity [13] 87% | residual activity [14] 94% | residual activity [15] 73% | residual activity [16] 81% | residual activity [17] 100% | residual activity [18] 66% | residual activity [19] 100% | residual activity [20] 100% | residual activity [21] 100% | residual activity [22] 96% | residual activity [23] 83% | residual activity [24] 92% | residual activity [25] 100% | residual activity [26] 89% | residual activity [27] 96% | residual activity [28] 105% | residual activity [29] 100% | residual activity [30] 97% | residual activity [31] 117% | residual activity [32] 100% | residual activity [33] 117% | inhibition [34] 50% | residual activity [35] 80% | residual activity [36] 100% | residual activity [37] 71% | residual activity [38] 87%
